ChEMBL document CHEMBL1134024, “Synthesis and structure-activity studies of side-chain derivatized arylhydantoins for investigation as androgen receptor radioligands” (Bioorg Med Chem Lett, 2001)
pKi: −log10 of the molar value.

Columns and labels:
Androgen receptor = target: T1, Androgen receptor (Rattus norvegicus, UniProt P15207); assay: Binding affinity against rat prostate cytosolic Androgen receptor using [3H]mibolerone as radioligand
T1 sequence (P15207 whole entry): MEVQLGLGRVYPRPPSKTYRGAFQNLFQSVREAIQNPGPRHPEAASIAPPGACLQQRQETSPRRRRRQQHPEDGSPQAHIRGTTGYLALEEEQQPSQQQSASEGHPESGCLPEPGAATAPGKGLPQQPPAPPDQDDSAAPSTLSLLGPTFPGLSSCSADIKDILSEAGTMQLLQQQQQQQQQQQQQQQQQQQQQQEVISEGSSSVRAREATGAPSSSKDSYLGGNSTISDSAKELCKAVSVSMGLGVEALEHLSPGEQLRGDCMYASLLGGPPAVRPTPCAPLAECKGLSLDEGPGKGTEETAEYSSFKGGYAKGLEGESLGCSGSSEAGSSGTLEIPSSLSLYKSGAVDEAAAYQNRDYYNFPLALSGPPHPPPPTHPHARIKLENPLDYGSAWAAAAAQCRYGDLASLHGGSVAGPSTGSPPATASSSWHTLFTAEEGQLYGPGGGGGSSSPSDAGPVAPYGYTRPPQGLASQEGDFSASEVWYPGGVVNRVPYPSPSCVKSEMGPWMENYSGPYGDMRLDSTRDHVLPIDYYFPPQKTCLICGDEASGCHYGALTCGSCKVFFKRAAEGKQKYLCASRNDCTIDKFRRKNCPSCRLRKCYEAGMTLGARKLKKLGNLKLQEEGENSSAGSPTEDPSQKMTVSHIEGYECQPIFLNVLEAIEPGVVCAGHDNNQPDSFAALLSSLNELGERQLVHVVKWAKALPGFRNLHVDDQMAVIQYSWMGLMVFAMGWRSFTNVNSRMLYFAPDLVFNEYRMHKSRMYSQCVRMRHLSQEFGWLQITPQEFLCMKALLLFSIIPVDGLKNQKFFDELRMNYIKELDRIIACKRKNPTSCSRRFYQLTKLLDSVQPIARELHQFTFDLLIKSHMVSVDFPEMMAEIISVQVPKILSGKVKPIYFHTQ

[1] = target: T2, Androgen receptor (Rattus norvegicus) (UniProt P15207); conditions: Prostate gland
T2 sequence (whole entry): T1 sequence (P15207 whole entry)
Description: Displacement of [3H]-mibolerone from rat prostate cytosolic Androgen receptor

SMILES: CC1(C)C(=O)N(c2ccc(C#N)c(C(F)(F)F)c2)C(=O)N1CCc1ccc(I)cc1
- pKi (Androgen receptor): 6.38

SMILES: CC1(C)C(=O)N(c2ccc(C#N)c(C(F)(F)F)c2)C(=O)N1C/C=C/I
- pKi (Androgen receptor): 7.89

SMILES: CC1(C)C(=O)N(c2ccc(C#N)c(C(F)(F)F)c2)C(=O)N1Cc1ccc(I)cc1
- pKi (Androgen receptor): 6.82

SMILES: CC1(C)C(=O)N(c2ccc(C#N)c(C(F)(F)F)c2)C(=O)N1Cc1cccc(I)c1
- pKi (Androgen receptor): 6.91

SMILES: CC1(C)C(=O)N(c2ccc(C#N)c(C(F)(F)F)c2)C(=O)N1CCF
- pKi (Androgen receptor): 6.85

SMILES: CC1(C)C(=O)N(c2ccc(C#N)c(C(F)(F)F)c2)C(=O)N1CCCc1cccc(I)c1
- pKi (Androgen receptor): 6.44

SMILES: CC1(C)C(=O)N(c2ccc(C#N)c(C(F)(F)F)c2)C(=O)N1CCCCO [RU-58841]
- pKi (Androgen receptor): 7.59
- Ka [1]: 1.2 nM

SMILES: CC1(C)C(=O)N(c2ccc(C#N)c(C(F)(F)F)c2)C(=O)N1CCCc1ccc(I)cc1
- pKi (Androgen receptor): 7.19

SMILES: COCCN1C(=O)N(c2ccc(C#N)c(C(F)(F)F)c2)C(=O)C1(C)C
- pKi (Androgen receptor): 6.92

SMILES: CN1C(=O)N(c2ccc(C#N)c(C(F)(F)F)c2)C(=O)C1(C)C
- pKi (Androgen receptor): 7.43

SMILES: CC1(C)C(=O)N(c2ccc(C#N)c(C(F)(F)F)c2)C(=O)N1CCCF
- pKi (Androgen receptor): 6.49

SMILES: CC1(C)C(=O)N(c2ccc(C#N)c(C(F)(F)F)c2)C(=O)N1CCc1cccc(I)c1
- pKi (Androgen receptor): 6.09
